Test system: bacterial mix: Escherichia coli DSM 1576, Alcaligenes faecalis DSM 13644, Pseudomonas aeruginosa ATCC 15442, Staphylococcus aureus ATCC 6538, Burkholderia …
Assay: Preservative activity of a basic composition (10% PG in water, pH 7) with 1,2-benzisothiazol-3(2H)-one (BIT) against bacterial contamination (Example 2.3)
Format: cell-based
Conditions: day 7
Procedure: An aqueous composition of pH 7 comprising 10% by weight of propyleneglycol (PG) as organic solvent, 0.004% by weight of 1,2-benzisothiazol-3(2H)-one (BIT) as antimicrobial and 0.04% by weight of the amide listed in the below table was tested for its preserving activity against bacterial contamination (the percentages are weight percent and relate to the total weight of the composition). For this purpose, the samples were contaminated with a bacterial mix consisting of: • Escherichia coli DSM 1576 • Alcaligenes faecalis DSM 13644 • Pseudomonas aeruginosa ATCC 15442 • Staphylococcus aureus ATCC 6538 • Burkholderia cepacia DSM 7288 • Pseudomonas putida DSM 12735
The samples were inoculated with the bacterial mix at day 0 to obtain 10E+06 to 10E+07 CFU/ml inoculation in the test sample and stored at 25° C. for 7 days.
CFU was determined at day 7.
Any CFU value at day 7 (d7) obtained with a sample according to the invention containing BIT and amide (10% PG+0.004% BIT+Amide in water) lower than the respective value of the “comparative 2” example (10% by weight of propyleneglycol+0.004% by weight of 1,2-benzisothiazol-3(2H)-one (BIT) in water) indicates a better performance.

## CCCCCCCCCC(=O)N(C)C [n-Decanoyl-N,N-dimethylamide]
10% PG + 0.004% BIT + 0.04% amide
  d7 [CFU/ml]: 4,000 CFU/ml
10% PG + 0.1% amide, no BIT (Comparative 1)
  d7 [CFU/ml]: >100,000 CFU/ml

Source: patent US20250040539A1, “COMPOSITION COMPRISING AN ANTIMICROBIAL AGENT AND A CARBOXAMIDE” (BASF SE, priority 2021, published 2025)
